Test results reported in US10399988B2, “4-aminopyrazolo[3,4-d]pyrimidinylazabicyclo derivatives and pharmaceutical composition comprising the same” (Daewoong Pharmaceutical Co., Ltd., priority 2016, dated 2019).

Target: BTK (Homo sapiens, UniProt Q06187)
Assay: Inhibitory activity against BTK (ADP-Glo + BTK Kinase enzyme system kit)

Sequence of BTK (Q06187 whole entry): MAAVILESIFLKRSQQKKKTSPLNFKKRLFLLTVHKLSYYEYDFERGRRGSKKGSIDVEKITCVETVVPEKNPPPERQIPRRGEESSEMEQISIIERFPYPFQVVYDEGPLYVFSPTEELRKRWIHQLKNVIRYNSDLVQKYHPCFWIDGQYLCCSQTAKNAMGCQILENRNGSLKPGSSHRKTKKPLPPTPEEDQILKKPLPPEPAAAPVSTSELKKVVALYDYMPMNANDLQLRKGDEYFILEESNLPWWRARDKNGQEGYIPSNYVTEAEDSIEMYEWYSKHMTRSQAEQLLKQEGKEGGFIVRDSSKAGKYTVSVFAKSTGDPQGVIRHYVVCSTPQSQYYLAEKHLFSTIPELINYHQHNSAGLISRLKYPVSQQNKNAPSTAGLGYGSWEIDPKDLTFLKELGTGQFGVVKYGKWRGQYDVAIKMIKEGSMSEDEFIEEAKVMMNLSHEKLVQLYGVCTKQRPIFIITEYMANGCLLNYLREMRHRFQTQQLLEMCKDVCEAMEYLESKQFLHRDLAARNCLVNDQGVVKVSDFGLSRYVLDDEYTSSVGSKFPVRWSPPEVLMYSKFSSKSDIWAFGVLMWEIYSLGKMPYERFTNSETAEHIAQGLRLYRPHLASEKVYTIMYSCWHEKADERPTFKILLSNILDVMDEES

Row | IC50 [nM] | Structure (SMILES)
1 | 25.2 | Nc1ncnc2c1c(-c1ccc(Oc3ccccc3)cc1)nn2C1CC2CC1N(C(=O)C#CC1CC1)C2 (centres unmarked) [Ex. 28, 1-(6-(4-amino-3-(4-phenoxyphenyl)-1H-pyrazolo[3,4-d]pyrimidin-1-yl)-2-azabicyclo[2.2.1]heptan-2-yl)-3-cyclopropylprop-2-yn-1-one]
2 | 16.9 | C=CC(=O)N1CC2CC1C(n1nc(-c3ccc(C(=O)Nc4cc(C(F)(F)F)ccn4)cc3)c3c(N)ncnc31)C2 (centres unmarked) [Ex. 29, 4-(1-(2-acryloyl-2-azabicyclo[2.2.1]heptan-6-yl)-4-amino-1H-pyrazolo[3,4-d]pyrimidin-3-yl)-N-(4-(trifluoromethyl)pyridin-2-yl)benzamide]
3 | > 1000 | C#CC(=O)N1CC2CC1C(n1nc(-c3ccc(-c4ccccc4)cc3)c3c(N)ncnc31)C2 (centres unmarked) [Ex. 30, 1-(6-(4-amino-3-(biphenyl-4-yl)-1H-pyrazolo[3,4-d]pyrimidin-1-yl)-2-azabicyclo[2.2.1]heptan-2-yl)prop-2-yn-1-one]
4 | 12.5 | C#CC(=O)N1CC2CC1C(n1nc(-c3ccc(Nc4ccccc4)cc3)c3c(N)ncnc31)C2 (centres unmarked) [Ex. 31, 1-(6-(4-amino-3-(4-(phenylamino)phenyl)-1H-pyrazolo[3,4-d]pyrimidin-1-yl)-2-azabicyclo[2.2.1]heptan-2-yl)prop-2-yn-1-one]
5 | > 1000 | C=CC(=O)N1CC2CC1C(n1nc(-c3ccc(Oc4ccncc4)cc3)c3c(N)ncnc31)C2 (centres unmarked) [Ex. 36, 1-(6-(4-amino-3-(4-(pyridin-4-yloxy)phenyl)-1H-pyrazolo[3,4-d]pyrimidin-1-yl)-2-azabicyclo[2.2.1]heptan-2-yl)prop-2-en-1-one]
6 | 5.1 | C=CC(=O)N1CC2CC1C(n1nc(-c3ccc(NC(=O)c4ccccc4)cc3)c3c(N)ncnc31)C2 (centres unmarked) [Ex. 37, N-(4-(1-(2-acryloyl-2-azabicyclo[2.2.1]heptan-6-yl)-4-amino-1H-pyrazolo[3,4-d]pyrimidin-3-yl)phenyl)benzamide]
7 | 8.2 | C=CC(=O)N1CC2CC1C(n1nc(-c3ccc(NC(=O)c4ccccn4)cc3)c3c(N)ncnc31)C2 (centres unmarked) [Ex. 38, N-(4-(1-(2-acryloyl-2-azabicyclo[2.2.1]heptan-6-yl)-4-amino-1H-pyrazolo[3,4-d]pyrimidin-3-yl)phenyl)picolinamide]
8 | 15.2 | C=CC(=O)N1CC2CC1C(n1nc(-c3ccc(NC(=O)Nc4ccccc4)cc3)c3c(N)ncnc31)C2 (centres unmarked) [Ex. 39, 1-(4-(1-(2-acryloyl-2-azabicyclo[2.2.1]heptan-6-yl)-4-amino-1H-pyrazolo[3,4-d]pyrimidin-3-yl)phenyl)-3-phenylurea]
9 | 5.5 | C=CC(=O)N1CC2CC1C(n1nc(-c3ccc(Oc4cccc(C)c4)cc3)c3c(N)ncnc31)C2 (centres unmarked) [Ex. 40, 1-(6-(4-amino-3-(4-(m-tolyloxy)phenyl)-1H-pyrazolo[3,4-d]pyrimidin-1-yl)-2-azabicyclo[2.2.1]heptan-2-yl)prop-2-en-1-one]
10 | 5.9 | Nc1ncnc2c1c(-c1ccc(Oc3ccccc3)cc1)nn2C1CC2CC1N(C(=O)/C=C/CBr)C2 (centres unmarked) [Ex. 44, (E)-1-(6-(4-amino-3-(4-phenoxyphenyl)-1H-pyrazolo[3,4-d]pyrimidin-1-yl)-2-azabicyclo[2.2.1]heptan-2-yl)-4-bromobut-2-en-1-one]
11 | 11.4 | CN(C)C/C=C/C(=O)N1CC2CC1C(n1nc(-c3ccc(Oc4ccccc4)cc3)c3c(N)ncnc31)C2 (centres unmarked) [Ex. 45, (E)-1-(6-(4-amino-3-(4-phenoxyphenyl)-1H-pyrazolo[3,4-d]pyrimidin-1-yl)-2-azabicyclo[2.2.1]heptan-2-yl)-4-(dimethylamino)but-2-en-1-one]
12 | 72 | C=CC(=O)N1CC2CC1C(n1nc(-c3ccc(C(=O)Nc4cccc(CC)c4)cc3)c3c(N)ncnc31)C2 (centres unmarked) [Ex. 46, 4-(1-(2-acryloyl-2-azabicyclo[2.2.1]heptan-6-yl)-4-amino-1H-pyrazolo[3,4-d]pyrimidin-3-yl)-N-(3-ethylphenyl)benzamide]

Continued, molecule first:

Row | Structure (SMILES) | IC50 [nM]
13 | C/C=C/C(=O)N1CC2CC1C(n1nc(-c3ccc(Oc4ccccc4)cc3)c3c(N)ncnc31)C2 (centres unmarked) [Ex. 3, (E)-1-(6-(4-amino-3-(4-phenoxyphenyl)-1H-pyrazolo[3,4-d]pyrimidin-1-yl)-2-azabicyclo[2.2.1]heptan-2-yl)but-2-en-1-one] | 202
14 | CC#CC(=O)N1CC2CC1C(n1nc(-c3ccc(Oc4ccccc4)cc3)c3c(N)ncnc31)C2 (centres unmarked) [Ex. 5, 1-(6-(4-amino-3-(4-phenoxyphenyl)-1H-pyrazolo[3,4-d]pyrimidin-1-yl)-2-azabicyclo[2.2.1]heptan-2-yl)but-2-yn-1-one] | 27.6
15 | C#CC(=O)N1CC2CC1C(n1nc(-c3ccc(C(=O)Nc4cc(C(F)(F)F)ccn4)cc3)c3c(N)ncnc31)C2 (centres unmarked) [Ex. 6, 4-(4-amino-1-(2-propioloyl-2-azabicyclo[2.2.1]heptan-6-yl)-1H-pyrazolo[3,4-d]pyrimidin-3-yl)-N-(4-(trifluoromethyl)pyridin-2-yl)benzamide] | 22.7
16 | C#CC(=O)N1CC2CC1C(n1nc(-c3cccc(C(=O)Nc4ccc(C(C)C)cc4)c3)c3c(N)ncnc31)C2 (centres unmarked) [Ex. 7, 3-(4-amino-1-(2-propioloyl-2-azabicyclo[2.2.1]heptan-6-yl)-1H-pyrazolo[3,4-d]pyrimidin-3-yl)-N-(4-isopropylphenyl)benzamide] | 31.6
17 | C=CC(=O)N1CC2CC1C(n1nc(-c3cccc(C(=O)Nc4ccc(C(C)C)cc4)c3)c3c(N)ncnc31)C2 (centres unmarked) [Ex. 8, 3-(1-(2-acryloyl-2-azabicyclo[2.2.1]heptan-6-yl)-4-amino-1H-pyrazolo[3,4-d]pyrimidin-3-yl)-N-(4-isopropylphenyl)benzamide] | 139
18 | C#CC(=O)N1CC2CC1C(n1nc(-c3cccc(C(=O)Nc4ccc(C(C)C)c(C)c4)c3)c3c(N)ncnc31)C2 (centres unmarked) [Ex. 9, 3-(4-amino-1-(2-propioloyl-2-azabicyclo[2.2.1]heptan-6-yl)-1H-pyrazolo[3,4-d]pyrimidin-3-yl)-N-(4-isopropyl-3-methylphenyl)benzamide] | 53.8
19 | C=CC(=O)N1CC2CC1C(n1nc(-c3cccc(C(=O)Nc4ccc(C(C)C)c(C)c4)c3)c3c(N)ncnc31)C2 (centres unmarked) [Ex. 10, 3-(1-(2-acryloyl-2-azabicyclo[2.2.1]heptan-6-yl)-4-amino-1H-pyrazolo[3,4-d]pyrimidin-3-yl)-N-(4-isopropyl-3-methylphenyl)benzamide] | 88
20 | C#CC(=O)N1CC2CC1CC2n1nc(-c2ccc(Oc3ccccc3)cc2)c2c(N)ncnc21 (centres unmarked) [Ex. 11, 1-(5-(4-amino-3-(4-phenoxyphenyl)-1H-pyrazolo[3,4-d]pyrimidin-1-yl)-2-azabicyclo[2.2.1]heptan-2-yl)prop-2-yn-1-one] | 2.8
21 | C#CC(=O)N1C[C@@H]2C[C@H]1C[C@H]2n1nc(-c2ccc(Oc3ccccc3)cc2)c2c(N)ncnc21 [Ex. 13, 1-((1S,4S,5R)-5-(4-amino-3-(4-phenoxyphenyl)-1H-pyrazolo[3,4-d]pyrimidin-1-yl)-2-azabicyclo[2.2.1]heptan-2-yl)prop-2-yn-1-one] | 2
22 | CCC#CC(=O)N1CC2CC1C(n1nc(-c3ccc(Oc4ccccc4)cc3)c3c(N)ncnc31)C2 (centres unmarked) [Ex. 16, 1-(6-(4-amino-3-(4-phenoxyphenyl)-1H-pyrazolo[3,4-d]pyrimidin-1-yl)-2-azabicyclo[2.2.1]heptan-2-yl)pent-2-yn-1-one] | > 1000
23 | C#CC(=O)N1CC2CC1C(n1nc(-c3cccc(C(=O)Nc4ccccc4)c3)c3c(N)ncnc31)C2 (centres unmarked) [Ex. 18, 3-(4-amino-1-(2-propioloyl-2-azabicyclo[2.2.1]heptan-6-yl)-1H-pyrazolo[3,4-d]pyrimidin-3-yl)-N-phenylbenzamide] | 6.9
24 | C=CC(=O)N1CC2CC1C(n1nc(-c3ccc(C(=O)Nc4ccccc4)cc3)c3c(N)ncnc31)C2 (centres unmarked) [Ex. 19, 4-(1-(2-acryloyl-2-azabicyclo[2.2.1]heptan-6-yl)-4-amino-1H-pyrazolo[3,4-d]pyrimidin-3-yl)-N-phenylbenzamide] | 10.8
25 | CC#CC(=O)N1CC2CC1C(n1nc(-c3ccc(C(=O)Nc4ccccc4)cc3)c3c(N)ncnc31)C2 (centres unmarked) [Ex. 20, 4-(4-amino-1-(2-(but-2-ynoyl)-2-azabicyclo[2.2.1]heptan-6-yl)-1H-pyrazolo[3,4-d]pyrimidin-3-yl)-N-phenylbenzamide] | > 1000
26 | C=CC(=O)N1CC2CC1C(n1nc(-c3cccc(C(=O)Nc4ccccc4)c3)c3c(N)ncnc31)C2 (centres unmarked) [Ex. 21, 3-(1-(2-acryloyl-2-azabicyclo[2.2.1]heptan-6-yl)-4-amino-1H-pyrazolo[3,4-d]pyrimidin-3-yl)-N-phenylbenzamide] | 63
27 | CC#CC(=O)N1CC2CC1C(n1nc(-c3cccc(C(=O)Nc4ccccc4)c3)c3c(N)ncnc31)C2 (centres unmarked) [Ex. 22, 3-(4-amino-1-(2-but-2-ynoyl-2-azabicyclo[2.2.1]heptan-6-yl)-1H-pyrazolo[3,4-d]pyrimidin-3-yl)-N-phenylbenzamide] | > 1000
28 | C=CC(=O)N1CC2CC1CC2n1nc(-c2ccc(C(=O)Nc3ccccc3)cc2)c2c(N)ncnc21 (centres unmarked) [Ex. 23, 4-(1-(2-acryloyl-2-azabicyclo[2.2.1]heptan-5-yl)-4-amino-1H-pyrazolo[3,4-d]pyrimidin-3-yl)-N-phenylbenzamide] | 78.8
29 | C=CC(=O)N1CC2CC1CC2n1nc(-c2cccc(C(=O)Nc3ccccc3)c2)c2c(N)ncnc21 (centres unmarked) [Ex. 24, 3-(1-(2-acryloyl-2-azabicyclo[2.2.1]heptan-5-yl)-4-amino-1H-pyrazolo[3,4-d]pyrimidin-3-yl)-N-phenylbenzamide] | 560
30 | C=CC(=O)N1CC2CC1CC2n1nc(-c2cccc(Oc3ccccc3)c2)c2c(N)ncnc21 (centres unmarked) [Ex. 25, 1-(5-(4-amino-3-(3-phenoxyphenyl)-1H-pyrazolo[3,4-d]pyrimidin-1-yl)-2-azabicyclo[2.2.1]heptan-2-yl)prop-2-en-1-one] | 72.3
31 | C=CC(=O)N1CC2CC1C(n1nc(-c3cccc(C(=O)Nc4ccc(C(F)(F)F)nc4)c3)c3c(N)ncnc31)C2 (centres unmarked) [Ex. 26, 3-(1-(2-acryloyl-2-azabicyclo[2.2.1]heptan-6-yl)-4-amino-1H-pyrazolo[3,4-d]pyrimidin-3-yl)-N-(6-(trifluoromethyl)pyridin-3-yl)benzamide] | 295
32 | C=CC(=O)N1CC2CC1C(n1nc(-c3ccc(COC)cc3)c3c(N)ncnc31)C2 (centres unmarked) [Ex. 27, 1-(6-(4-amino-3-(4-(methoxymethyl)phenyl)-1H-pyrazolo[3,4-d]pyrimidin-1-yl)-2-azabicyclo[2.2.1]heptan-2-yl)prop-2-en-1-one] | 29.6
